Molecules are shown by their SMILES. Where a name gives a salt, the structure may show the parent alone.

`CCN(CC)CCc1c[nH]c2ccc(NS(=O)(=O)c3sc4ccc(Cl)cc4c3C)cc12` [Example 1c, N-[3-(2-diethylaminoethyl)-1H-indol-5-yl]-5-chloro-3-methylbenzo[b]thiophene-2-sulphonamide] showed a melting point of 170 to 173 °C.

Consider `Cl.O=S(=O)(C1CCCCC1)n1cc(C2=CCN3CCCC3C2)c2cc(F)ccc21` (stereo not shown) [Example 4h, 1-Cyclohexanesulfonyl-5-fluoro-3-(1,2,3,5,8,8a-hexahydro-indolizine-7-yl)-1H-indole hydrochloride], for which the melting point was 263 °C (dec.).

The compound `Cc1c(S(=O)(=O)Nc2ccc3[nH]cc(CCN(C)C)c3c2)sc2ccc(Cl)cc12` [Example 7c, N-[3-(2-dimethylaminoethyl)-1H-indol-5-yl]-5-chloro-3-methylbenzo[b]thiophene-2-sulphonamide] came in with a melting point of 226 to 227 °C.

Compound `Cc1ccc2c(c1)COC(=O)N2C1CCN(CC(=O)Nc2ccccc2Cl)CC1` came in with a melting point of 146 to 148 °C.

For the compound `CN(C)CCn1ccc2cc(NS(=O)(=O)c3cccc4c(Cl)cccc34)ccc21` [Example 4e, N-[1-(2-dimethylaminoethyl)-1H-indole-5-yl]-5-chloronaphthalene-1-sulfonamide], the melting point lay in the range of 172 to 174 °C.

As for `Cl.O=C(CN1CCC(N2C(=O)OCc3ccccc32)CC1)Nc1cccc(C(=O)c2ccccc2)c1`, the melting point is 214 to 218 °C.

`Cc1c(S(=O)(=O)Nc2ccc3c(ccn3CCCN3CCCCC3)c2)sc2ccc(Cl)cc12` [Example 43e, 5-chloro-3-methyl-N-(1-(3-(piperidin-1-yl)propyl)-1H-indol-5-yl)benzo[b]thiophene-2-sulfonamide] came in with a melting point of 82 to 92 °C.

Compound `CN(C)CCn1ccc2ccc(NS(=O)(=O)c3cc(Cl)cc(Cl)c3)cc21` [Example 8f, N-[1-(2-Dimethylaminoethyl)-1H-indol-6-yl]-3,5-dichlorobenzenesulfonamide] had a melting point of 150 to 159 °C.

With `CCN(CC)CCn1ccc2cc(NS(=O)(=O)c3cccc4ccccc34)ccc21` [Example 30e, N-(1-(2-(diethylamino)ethyl)-1H-indol-5-yl)-naphthalene-1-sulfonamide], the melting point is 133 to 135 °C.

In turn, `Cc1ccc2c(c1)COC(=O)N2C1CCN(CC(=O)Nc2ccc(C(=O)c3ccccc3)cc2)CC1.Cl` registered a melting point of 240 to 244 °C.

For `O=S(=O)(Nc1ccc2[nH]cc(CCN3CCOCC3)c2c1)c1cccc2cccnc12`, the melting point lay within 234 to 235 °C.

In turn, `Cc1cc2cc(NS(=O)(=O)c3ccc(-c4ccccc4)cc3)ccc2n1CCN(C)C` [Example 36e, N-(1-(2-(dimethylamino)ethyl)-2-methyl-1H-indol-5-yl)-4-phenylbenzenesulfonamide] gave a melting point of 176 to 177 °C.

For `CN(C)CCn1ccc2cc(NS(=O)(=O)c3ccc(Cl)s3)ccc21` [Example 9e, N-[1-(2-dimethylaminoethyl)-1H-indole-5-yl]-5-chlorothiophene-2-sulfonamide], the melting point is 145 to 147 °C.

Take `O=S(=O)(Nc1ccc2c(ccn2CCN2CCCC2)c1)c1cccc2ccccc12` [Example 17e, N-[1-(2-pyrrolidine-1-yl-ethyl)-1H-indole-5-yl]-naphthalene-1-sulfonamide]: the melting point was in the range of 186 to 189 °C.

For `CCN(c1ccccc1)c1ccc(NC(=O)CN2CCC(N3C(=O)OCc4ccccc43)CC2)cc1.Cl`, the melting point was in the range of 254 to 257 °C.

In turn, `CCN(CC)CCc1c[nH]c2ccc(N(CC)S(=O)(=O)c3ccc4ccccc4c3)cc12` had a melting point of 49 to 50 °C.

On to `CN(C)CCn1ccc2cc(NS(=O)(=O)c3ccc4ccccc4c3)ccc21`, for which the melting point lay in the range of 54 to 57 °C.

`CN(C)CCn1ccc2c(NS(=O)(=O)c3c(Cl)nc4sccn34)cccc21` [Example 8d, 6-chloro-N-[1-(2-dimethylaminoethyl)-1H-indol-4-yl]-imidazo[2,1-b]thiazole-5-sulfonamide] displayed a melting point of 95 to 100 °C.

In the case of `O=S(=O)(Nc1ccc2[nH]cc(CCN3CCOCC3)c2c1)c1ccc2ccccc2c1`, the melting point is 85 to 90 °C.

With `Cl.O=C(CN1CCC(N2C(=O)OCc3ccccc32)CC1)Nc1ccc(Oc2ccccc2)cc1`, the melting point was 242 to 248 °C.

`Cc1cccc2c1N(C1CCN(CC(=O)Nc3ccc(C4CCCCC4)cc3)CC1)C(=O)OC2.Cl` returned a melting point of 249 to 253 °C.

Compound `Cc1ccc2c(c1)N(C1CCN(CC(=O)Nc3ccc4c(c3)-c3ccccc3C4O)CC1)C(=O)OC2` (stereo not shown) had a melting point of 136 °C.

Consider `Cl.O=C(CN1CCC(N2C(=O)OCc3ccccc32)CC1)Nc1ccc(Cl)cc1`, for which the melting point lay in the range of 272 to 276 °C.

In turn, `Cc1cc2cc(NS(=O)(=O)c3ccc(Oc4ccccc4)cc3)ccc2n1CCN(C)C` [Example 38e, N-(1-(2-(dimethylamino)ethyl)-2-methyl-1H-indol-5-yl)-4-phenoxy-benzenesulfonamide] came in with a melting point of 147 to 149 °C.

The compound `CN(C)CCn1ccc2cccc(NS(=O)(=O)c3c(Cl)nc4sccn34)c21` [Example 4g, N-[1-(2-dimethylaminoethyl)-1H-indole-7-yl]-6-chloroimidazo[2,1-b]thiazole-5-sulfonamide] yielded a melting point of 73 to 76 °C.

As to `CN(C)CCn1ccc2cc(NS(=O)(=O)c3cccc(Br)c3)ccc21` [Example 13e, N-[1-(2-dimethylaminoethyl)-1H-indole-5-yl]-3-bromobenzenesulfonamide], the melting point fell in the range of 114 to 116 °C.

For the compound `O=S(=O)(Nc1ccc2[nH]cc(CCN3CCCC3)c2c1)c1ccc2ccccc2c1`, the melting point was 180 to 182 °C.

Take `CCN(CC)CCc1c[nH]c2ccc(NS(=O)(=O)c3ccc4ccccc4c3)cc12`: the melting point lay within 134 to 136 °C.

`O=S(=O)(Nc1cccc2ccn(CCN3CCCC3)c12)c1cccc2ccccc12` [Example 6g, N-(1-(2-(pyrrolidin-1-yl)ethyl)-1H-indol-7-yl)naphthalene-1-sulfonamide] displayed a melting point of 196 to 199 °C.

For the compound `CCCN(CCC)CCc1c[nH]c2ccc(NS(=O)(=O)c3ccc4ccccc4c3)cc12`, the melting point is 58 to 64 °C (dec.).

Take `O=C1OCc2ccccc2N1C1CCN(S(=O)(=O)c2cccc(Cl)c2Cl)CC1`: the melting point lay within 185 to 187 °C.

On to `Cl.O=C(CN1CCC(N2C(=O)OCc3cc(Cl)ccc32)CC1)Nc1ccc(Oc2ccccc2)cc1`, for which the melting point was 262 to 267 °C.

For the compound `Cl.O=C(CN1CCC(N2C(=O)OCc3cc(Cl)ccc32)CC1)Nc1ccc(C(=O)c2ccccc2)cc1`, the melting point lay within 256 to 259 °C.

For `Cl.O=C(CN1CCC(N2C(=O)OCc3ccccc32)CC1)Nc1ccc2c(c1)C(O)c1ccccc1-2` (stereo not shown), the melting point was > 225 °C (dec.).

Compound `CN(C)CCn1ccc2cc(NS(=O)(=O)c3cc(Cl)c(Cl)s3)ccc21` [Example 20e, N-[1-(2-dimethylaminoethyl)-1H-indole-5-yl]-4,5-dichlorothiophene-2-sulfonamide] gave a melting point of 120 to 123 °C.

Consider `Cc1cccc2c1N(C1CCN(CC(=O)Nc3ccc4c(c3)C(=O)c3ccccc3-4)CC1)C(=O)OC2.Cl`, for which the melting point is > 300 °C (dec.).

In the case of `O=C(CN1CCC(N2C(=O)OCc3c(F)cccc32)CC1)Nc1ccc2[nH]c3ccccc3c2c1`, the melting point worked out at 195 °C.

Turning to `CCN(CC)CCc1c[nH]c2ccc(NS(=O)(=O)c3ccc4ccccc4c3)cc12` [Example 17c, N-[3-(2-diethylaminoethyl)-1H-indol-5-yl]naphthalene-2-sulphonamide], the melting point was 172 to 173 °C.

Regarding `CN1CC=C(c2cn(S(=O)(=O)C3CCCCC3)c3ccc(Cl)cc23)CC1` [Example 2h, 5-Chloro-1-cyclohexanesulfonyl-3-(1-methyl-1,2,3,6-tetrahydropyridine-4-yl)-1H-indole], the melting point was in the range of 88 to 90 °C.

Regarding `CCCCN(CCCC)CCc1c[nH]c2ccc(NS(=O)(=O)c3sc4ccc(Cl)cc4c3C)cc12`, the melting point was in the range of 79 to 80 °C.

Compound `CCN(CC)CCc1c[nH]c2ccc(NS(=O)(=O)c3cccc4ccccc34)cc12` (as salt: hydrochloride) came in with a melting point of 255 to 257 °C.

The compound `Cl.O=C(CN1CCC(N2C(=O)OCc3cc(Cl)ccc32)CC1)Nc1ccc2c(c1)C(O)c1ccccc1-2` (stereo not shown) displayed a melting point of 286 to 289 °C.

Compound `O=C(CN1CCC(N2C(=O)OCc3cc(F)ccc32)CC1)Nc1ccc2c(c1)-c1ccccc1C2=O` yielded a melting point of 237 °C.

Compound `O=C(CN1CCC(N2C(=O)OCc3ccc(Cl)cc32)CC1)Nc1ccc2oc3ccccc3c2c1` registered a melting point of 237 °C.

The compound `Cl.O=C(CN1CCC(N2C(=O)OCc3ccccc32)CC1)Nc1ccc2c(c1)-c1ccccc1C2O` (stereo not shown) had a melting point of 270 to 273 °C.

Consider `CN(C)CCn1ccc2cc(NS(=O)(=O)c3cccc([N+](=O)[O-])c3)ccc21` [Example 14e, N-[1-(2-dimethylaminoethyl)-1H-indole-5-yl]-3-nitrobenzenesulfonamide], for which the melting point was 138 to 140 °C.

`CCN(CC)CCn1ccc2cc(NS(=O)(=O)c3c(Cl)nc4sccn34)ccc21` [Example 27e, N-[1-(2-diethylaminoethyl)-1H-indole-5-yl]-6-chloroimidazo[2,1-b]thiazole-5-sulfonamide] displayed a melting point of 68 to 70 °C.

Regarding `Cc1ccc(S(=O)(=O)Nc2ccc3c(ccn3CCN(C)C)c2)cc1` [Example 8e, N-[1-(2-dimethylaminoethyl)-1H-indole-5-yl]-4-methylbenzenesulfonamide], the melting point fell in the range of 126 to 128 °C.

As to `Cc1cccc2c1N(C1CCN(S(=O)(=O)c3cccc(Cl)c3Cl)CC1)C(=O)OC2`, the melting point lay within 184 to 185 °C.

As to `Cl.O=C(CN1CCC(N2C(=O)OCc3ccccc32)CC1)Nc1ccc2c(c1)CCC2=O`, the melting point lay in the range of 272 to 277 °C.

Consider `Cc1c(S(=O)(=O)Nc2ccc3c(c2)cc(C)n3CCN(C)C)sc2ccc(Cl)cc12` [Example 32e, 5-chloro-N-(1-(2-(dimethylamino)ethyl)-2-methyl-1H-indol-5-yl)-3-methylbenzo[b]thiophene-2-sulfonamide], for which the melting point lay within 203 to 205 °C.

Take `O=S(=O)(Nc1ccc2[nH]cc(CCN3CCOCC3)c2c1)c1ccc(-c2ccccc2)cc1` [Example 51c, N-{3-[2-(morpholin-4-yl)ethyl]-1H-indol-5-yl}-4-phenylbenzenesulphonamide]: the melting point lay within 225 to 228 °C.

The values above are taken from US20070059364A1, “Active substance combination comprising a compound with npy receptor affinity and a compound with 5-ht6 receptor affinity” (Laboratorios Del Dr. Esteve S.A., priority 2003, published 2007).
